ChEMBL document CHEMBL2073798, “P-Glycoprotein mediates the efflux of quinidine across the blood-brain barrier” (J Pharmacol Exp Ther, 1997)

What was measured:
[1] = target: T1, ATP-dependent translocase ABCB1 (Mus musculus, UniProt P21447); experiment: TP_TRANSPORTER: increase in brain concentration in mdr1a(-/-) mouse; assay type: functional, organism-based; settings: in vivo
[2] = target: T1, ATP-dependent translocase ABCB1; experiment: TP_TRANSPORTER: increase in Quinidine concentration in brain in FVB mouse; assay type: functional, organism-based; settings: in vivo

T1 sequence (P21447 whole entry): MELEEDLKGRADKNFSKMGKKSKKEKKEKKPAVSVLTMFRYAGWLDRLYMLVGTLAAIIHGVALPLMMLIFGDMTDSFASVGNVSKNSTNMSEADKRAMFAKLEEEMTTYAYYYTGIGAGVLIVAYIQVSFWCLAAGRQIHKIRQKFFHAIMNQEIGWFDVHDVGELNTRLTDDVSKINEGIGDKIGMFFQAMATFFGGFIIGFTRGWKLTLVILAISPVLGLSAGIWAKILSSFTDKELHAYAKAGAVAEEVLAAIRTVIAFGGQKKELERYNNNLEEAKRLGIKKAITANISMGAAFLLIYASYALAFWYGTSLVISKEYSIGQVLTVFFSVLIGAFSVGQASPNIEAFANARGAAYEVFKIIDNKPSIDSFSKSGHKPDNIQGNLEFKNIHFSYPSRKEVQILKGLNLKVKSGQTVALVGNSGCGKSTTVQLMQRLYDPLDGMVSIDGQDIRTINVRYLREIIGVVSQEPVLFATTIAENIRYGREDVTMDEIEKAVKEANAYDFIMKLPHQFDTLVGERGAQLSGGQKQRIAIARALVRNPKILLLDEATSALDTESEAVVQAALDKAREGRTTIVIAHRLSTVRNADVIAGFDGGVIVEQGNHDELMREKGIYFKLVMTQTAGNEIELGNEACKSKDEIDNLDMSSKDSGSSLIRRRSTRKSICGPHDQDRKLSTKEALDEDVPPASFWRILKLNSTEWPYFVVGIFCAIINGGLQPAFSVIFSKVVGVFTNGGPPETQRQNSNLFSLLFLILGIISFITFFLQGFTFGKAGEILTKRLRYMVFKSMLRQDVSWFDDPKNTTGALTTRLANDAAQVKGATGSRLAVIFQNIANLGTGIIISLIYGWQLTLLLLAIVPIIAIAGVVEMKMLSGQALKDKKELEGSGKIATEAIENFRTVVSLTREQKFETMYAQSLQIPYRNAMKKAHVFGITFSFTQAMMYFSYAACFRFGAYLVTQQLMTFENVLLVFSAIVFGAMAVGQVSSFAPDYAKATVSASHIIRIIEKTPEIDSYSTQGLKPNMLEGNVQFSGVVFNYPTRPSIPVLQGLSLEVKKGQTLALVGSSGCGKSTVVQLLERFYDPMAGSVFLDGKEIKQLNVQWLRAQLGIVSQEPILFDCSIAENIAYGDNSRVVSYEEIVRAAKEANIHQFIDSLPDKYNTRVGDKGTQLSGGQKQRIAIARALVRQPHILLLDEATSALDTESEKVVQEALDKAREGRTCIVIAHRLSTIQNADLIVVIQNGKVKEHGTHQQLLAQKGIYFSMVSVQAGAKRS

| Structure (SMILES) | Activity [1] | Activity [2] [fold] |
| --- | --- | --- |
| C=C[C@H]1C[N@@]2CC[C@H]1C[C@@H]2[C@@H](O)c1ccnc2ccc(OC)cc12 [QUINIDINE] | substrate [+] |  |
| C/C=C/C[C@@H](C)C(=O)[C@H]1C(=O)N[C@@H](C(C)C)C(=O)N(C)CC(=O)N(C)[C@@H](CC(C)C)C(=O)N[C@@H](C(C)C)C(=O)N(C)[C@@H](CC(C)C)C(=O)N[C@@H](C)C(=O)N[C@H](C)C(=O)N(C)[C@@H](CC(C)C)C(=O)N(C)[C@@H](CC(C)C)C(=O)N(C)[C@@H](C(C)C)C(=O)N1C [VALSPODAR] |  | 10.2 |
